Experimental data taken from PubChem BioAssay AID248 (DTP/NCI, 2004).
Where “and” joins values, the source holds several entries; their conditions need not be identical. Equal entries are not always repeated. Inconclusive results and toxic doses are left out.

Test system: L1210 leukemia ip in BDF1 mice, survival T/C
Assay: NCI In Vivo Anticancer Drug Screen. Data for tumor model L1210 Leukemia (intraperitoneal) in B6D2F1 (BDF1) mice
Details: endpoint: mean survival time, higher = longer survival
Method in brief: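 Value reflects the ratio of survival in compound-treated mice to survival in vehicle-treated controls, with both groups carrying the same transplanted tumor.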

[1] = dose: 50.0 mg/kg/injection, schedule: Q04DX003 (ip), vehicle: acetone
[2] = dose: 88.8 mg/kg/injection, schedule: Q01DX001 (ip), vehicle: carboxymethylcellulose (CMC)
[3] = dose: 100.0 mg/kg/injection, schedule: Q01DX001 (ip), vehicle: carboxymethylcellulose (CMC)
[4] = dose: 100.0 mg/kg/injection, schedule: Q01DX001 (ip), vehicle: saline
[5] = dose: 300.0 mg/kg/injection, schedule: Q01DX001 (ip), vehicle: carboxymethylcellulose (CMC)
[6] = dose: 200.0 mg/kg/injection, schedule: Q01DX001 (ip), vehicle: saline
[7] = dose: 400.0 mg/kg/injection, schedule: Q01DX001 (ip), vehicle: saline
[8] = dose: 50.0 mg/kg/injection, schedule: Q01DX009 (ip), vehicle: acetone
[9] = dose: 100.0 mg/kg/injection, schedule: Q04DX003 (ip), vehicle: acetone
[10] = dose: 100.0 mg/kg/injection, schedule: Q04DX003 (ip), vehicle: Klucel (hydroxypropylcellulose) (HPC)
[11] = dose: 200.0 mg/kg/injection, schedule: Q04DX003 (ip), vehicle: Klucel (hydroxypropylcellulose) (HPC)
[12] = dose: 400.0 mg/kg/injection, schedule: Q04DX003 (ip), vehicle: Klucel (hydroxypropylcellulose) (HPC)
[13] = dose: 200.0 mg/kg/injection, schedule: Q01DX001 (ip), vehicle: carboxymethylcellulose (CMC)
[14] = dose: 400.0 mg/kg/injection, schedule: Q01DX001 (ip), vehicle: carboxymethylcellulose (CMC)
[15] = dose: 100.0 mg/kg/injection, schedule: Q04DX003 (ip), vehicle: saline with Tween-80
[16] = dose: 200.0 mg/kg/injection, schedule: Q04DX003 (ip), vehicle: saline with Tween-80
[17] = dose: 400.0 mg/kg/injection, schedule: Q04DX003 (ip), vehicle: saline with Tween-80
[18] = dose: 50.0 mg/kg/injection, schedule: Q01DX001 (ip), vehicle: saline

How did the T/C (dose: 5.0 mg/kg/injection, schedule: Q01DX009 (ip), vehicle: saline with Tween-80) turn out when `CC1CCCC(C)N1C1=NCCO1` (stereo unspecified) was run?
The T/C was 95 % of control.

What about the T/C (dose: 10.0 mg/kg/injection, schedule: Q01DX009 (ip), vehicle: saline with Tween-80) of the same compound?
The T/C was 97 % of control.

And the T/C (dose: 20.0 mg/kg/injection, schedule: Q01DX009 (ip), vehicle: saline with Tween-80)?
The T/C was 95 % of control.

What does the source list for `Cc1cc(C(C(N)=O)c2ccccc2)ccc1N(CCCl)CCCl` (stereo unspecified)?
T/C (dose: 2.0 mg/kg/injection, schedule: Q01DX009 (ip), vehicle: carboxymethylcellulose (CMC)): 116 % of control; T/C (dose: 3.7 mg/kg/injection, schedule: Q01DX015 (ip), vehicle: carboxymethylcellulose (CMC)): 121 % of control; T/C (dose: 4.0 mg/kg/injection, schedule: Q01DX009 (ip), vehicle: carboxymethylcellulose (CMC)): 124 % of control; T/C (dose: 7.2 mg/kg/injection, schedule: Q04DX003 (ip), vehicle: acetone): 104 % of control; T/C (dose: 20.0 mg/kg/injection, schedule: Q01DX009 (ip), vehicle: Klucel (hydroxypropylcellulose) (HPC)): 153 % of control; T/C (dose: 21.0 mg/kg/injection, schedule: Q04DX003 (ip), vehicle: acetone): 109 % of control and 121 % of control; T/C (dose: 21.0 mg/kg/injection, schedule: Q04DX003 (ip), vehicle: saline): 112 % of control; T/C (dose: 33.0 mg/kg/injection, schedule: Q04DX003 (ip), vehicle: saline): 118 % of control; T/C (dose: 37.5 mg/kg/injection, schedule: Q01DX009 (ip), vehicle: saline with Tween-80): 86 % of control; T/C (dose: 40.0 mg/kg/injection, schedule: Q01DX009 (ip), vehicle: Klucel (hydroxypropylcellulose) (HPC)): 101 % of control; T/C (dose: 45.0 mg/kg/injection, schedule: Q01DX015 (ip), vehicle: carboxymethylcellulose (CMC)): 95 % of control; T/C (dose: 49.0 mg/kg/injection, schedule: Q04DX003 (ip), vehicle: acetone): 120 % of control; T/C (dose: 50.0 mg/kg/injection, schedule: Q01DX001 (ip), vehicle: carboxymethylcellulose (CMC)): 114 % of control; T/C [1]: 123 % of control; T/C (dose: 50.0 mg/kg/injection, schedule: Q04DX003 (ip), vehicle: saline): 106 % of control; T/C (dose: 64.0 mg/kg/injection, schedule: Q01DX009 (ip), vehicle: carboxymethylcellulose (CMC)): 106 % of control; T/C (dose: 66.0 mg/kg/injection, schedule: Q01DX001 (ip), vehicle: saline): 116 % of control; T/C (dose: 66.0 mg/kg/injection, schedule: Q04DX003 (ip), vehicle: acetone): 112 % of control; T/C [2]: 123 % of control; T/C [3]: 112 % of control; T/C [4]: 100 % of control; T/C (dose: 150.0 mg/kg/injection, schedule: Q04DX003 (ip), vehicle: acetone): 96 % of control; T/C [5]: 152 % of control

With `Cc1nc(N)c2nc(-c3ccc(N(CCCl)CCCl)cc3)c(N)nc2n1` as the compound, how does the T/C [4] read?
Its T/C is 96 % of control.

And the T/C [6]?
Its T/C is 96 % of control.

And the T/C [7]?
The T/C was 96 % of control.

Which T/C (dose: 25.0 mg/kg/injection, schedule: Q01DX009 (ip), vehicle: acetone) does the source give for `N#Cc1nnn(-c2ccccc2)n1` here?
The T/C was 101 % of control.

What about the T/C [8] of the same compound?
Its T/C is 111 % of control.

And the T/C [1]?
Its T/C is 93 % of control.

What about the T/C (dose: 100.0 mg/kg/injection, schedule: Q01DX001 (ip), vehicle: acetone) of the same compound?
The T/C was 99 % of control.

And the T/C [9]?
Its T/C is 88 % of control.

What about the T/C (dose: 200.0 mg/kg/injection, schedule: Q01DX001 (ip), vehicle: acetone) of the same compound?
Its T/C is 99 % of control.

What does the source list for `O=c1ccc2c(-c3cc(S(=O)(=O)O)ccc3O)c3ccc(O)cc3oc-2c1`?
T/C [10]: 91 % of control; T/C [11]: 89 % of control; T/C [12]: 91 % of control

`c1ccc(-c2cnsc2)cc1` was tested. Which T/C [13] did it give?
Its T/C is 95 % of control.

What about the T/C [14] of the same compound?
The T/C was 100 % of control.

Which results are given for `CC(C)(N)C(=O)O`?
T/C (dose: 100.0 mg/kg/injection, schedule: Q04DX003 (ip), vehicle: saline sonified): 101 % of control; T/C (dose: 200.0 mg/kg/injection, schedule: Q04DX003 (ip), vehicle: saline sonified): 98 % of control; T/C (dose: 400.0 mg/kg/injection, schedule: Q04DX003 (ip), vehicle: saline sonified): 98 % of control

What does the source list for `CC(O)c1cccc(N(C)C)c1` (stereo unspecified)?
T/C [8]: 93 % of control; T/C (dose: 100.0 mg/kg/injection, schedule: Q01DX009 (ip), vehicle: acetone): 95 % of control; T/C [9]: 96 % of control; T/C (dose: 200.0 mg/kg/injection, schedule: Q01DX009 (ip), vehicle: acetone): 93 % of control; T/C (dose: 200.0 mg/kg/injection, schedule: Q04DX003 (ip), vehicle: acetone): 96 % of control; T/C (dose: 400.0 mg/kg/injection, schedule: Q04DX003 (ip), vehicle: acetone): 101 % of control

With `CCOC(=O)C(Cc1ccc(O)c([N+](=O)[O-])c1)N1C(=O)c2ccccc2C1=O` (stereo unspecified) as the compound, how does the T/C [4] read?
The T/C was 107 % of control.

What about the T/C [6] of the same compound?
Its T/C is 92 % of control.

What about the T/C [7] of the same compound?
Its T/C is 95 % of control.

`C[n+]1ccccc1` was tested. Which T/C [4] did it give?
Its T/C is 94 % of control.

What about the T/C [6] of the same compound?
Its T/C is 93 % of control.

And the T/C [7]?
The T/C was 104 % of control.

How did the T/C (dose: 100.0 mg/kg/injection, schedule: Q04DX003 (ip), vehicle: other) turn out when `CCCCOc1ccc(O)cc1` was run?
The T/C was 117 % of control.

And the T/C (dose: 200.0 mg/kg/injection, schedule: Q04DX003 (ip), vehicle: other)?
Its T/C is 100 % of control.

And the T/C (dose: 400.0 mg/kg/injection, schedule: Q04DX003 (ip), vehicle: other)?
The T/C was 108 % of control.

Which results are given for `C(=Nc1cnc2sccc2c1)c1ccccc1`?
T/C [10]: 100 % of control; T/C [11]: 100 % of control; T/C [12]: 94 % of control

What does the source list for `CCOc1ccc(NC(=O)Oc2ccc(SC)c(C)c2)cc1`?
T/C (dose: 100.0 mg/kg/injection, schedule: Q01DX009 (ip), vehicle: Klucel (hydroxypropylcellulose) (HPC)): 91 % of control; T/C (dose: 200.0 mg/kg/injection, schedule: Q01DX009 (ip), vehicle: Klucel (hydroxypropylcellulose) (HPC)): 91 % of control; T/C (dose: 400.0 mg/kg/injection, schedule: Q01DX009 (ip), vehicle: Klucel (hydroxypropylcellulose) (HPC)): 96 % of control

Which results are given for `NNC(=O)CNc1cccc(Cl)c1F`?
T/C (dose: 25.0 mg/kg/injection, schedule: Q04DX002 (ip), vehicle: Klucel (hydroxypropylcellulose) (HPC)): 92 % of control; T/C (dose: 50.0 mg/kg/injection, schedule: Q04DX002 (ip), vehicle: Klucel (hydroxypropylcellulose) (HPC)): 92 % of control; T/C (dose: 100.0 mg/kg/injection, schedule: Q04DX002 (ip), vehicle: Klucel (hydroxypropylcellulose) (HPC)): 122 % of control

Which results are given for `CCOc1cc(-c2nc(-c3ccc(N=Cc4ccc(N(CCCOS(C)(=O)=O)CCCOS(C)(=O)=O)cc4C)cc3)cs2)ccc1OCc1ccccc1`?
T/C [15]: 91 % of control; T/C [16]: 86 % of control; T/C [17]: 89 % of control

`Oc1ccc(C(=S)N2CCOCC2)cc1` was tested. Which T/C [10] did it give?
Its T/C is 97 % of control.

And the T/C [11]?
Its T/C is 97 % of control.

What about the T/C [12] of the same compound?
Its T/C is 98 % of control.

Which T/C (dose: 50.0 mg/kg/injection, schedule: Q01DX009 (ip), vehicle: saline) does the source give for `Cc1ccc(C(C)C)c(OCC2=NCCN2C)c1` here?
The T/C was 100 % of control.

And the T/C (dose: 100.0 mg/kg/injection, schedule: Q01DX009 (ip), vehicle: saline)?
The T/C was 98 % of control.

And the T/C (dose: 200.0 mg/kg/injection, schedule: Q01DX009 (ip), vehicle: saline)?
The T/C was 115 % of control.

For `CCC(O)(CC)C(=O)Nc1ccccc1`, which T/C [18] is on record?
The T/C was 98 % of control.

What about the T/C [4] of the same compound?
The T/C was 104 % of control.

What about the T/C [6] of the same compound?
The T/C was 96 % of control.

And the T/C [7]?
Its T/C is 102 % of control.

For `Cc1ccc(NCc2nc(N)nc(Nc3ccccc3)n2)cc1`, which T/C [15] is on record?
Its T/C is 97 % of control.

What about the T/C [16] of the same compound?
The T/C was 92 % of control.

What about the T/C [17] of the same compound?
The T/C was 93 % of control.

Which results are given for `CN(C)S(=O)(=O)c1ccc(CC(O)(c2ccccc2)c2ccccc2)cc1`?
T/C [2]: 105 % of control and 91 % of control; T/C [3]: 98 % of control; T/C (dose: 133.0 mg/kg/injection, schedule: Q01DX001 (ip), vehicle: carboxymethylcellulose (CMC)): 120 % of control and 91 % of control; T/C [13]: 96 % of control and 109 % of control; T/C [5]: 93 % of control and 97 % of control; T/C [14]: 104 % of control

For `CCCCCCCCCCSc1ncnc2c1ncn2CO`, which T/C [18] is on record?
The T/C was 91 % of control.

And the T/C [4]?
Its T/C is 101 % of control.

What about the T/C [6] of the same compound?
The T/C was 117 % of control.

What about the T/C [7] of the same compound?
Its T/C is 120 % of control.

`CC(C)OC(=O)c1ccccc1-c1ccccc1` was tested. Which T/C (dose: 100.0 mg/kg/injection, schedule: Q01DX001 (ip), vehicle: other) did it give?
The T/C was 102 % of control.

What about the T/C (dose: 200.0 mg/kg/injection, schedule: Q01DX001 (ip), vehicle: other) of the same compound?
Its T/C is 96 % of control.

What about the T/C (dose: 400.0 mg/kg/injection, schedule: Q01DX001 (ip), vehicle: other) of the same compound?
The T/C was 87 % of control.
